Among the test systems are A498; A549; CAKI-1; COLO 205; HCT-15; HL-60; Hs-578T; IGROV-1; K562; LOX IMVI; MCF7; MDA-MB-231; MDA-MB-435; MDA-N; Malme-3M; NCI-H23; NCI-H460; OVCAR-5; SF-268; SK-MEL-5.
What all share (assay): NCI anticancer screen, dose series, 48 h

The source of these data is ChEMBL document CHEMBL1201862, “PubChem BioAssay data set” (2004).

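Briefly, cells in 96-well plates were exposed to five compound concentrations for 48 h, and endpoints were estimated by linear interpolation. GI50 marks 50% less growth.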 Activity calls are given as the source filed them. No stated cut-off is given here; in the data, active = GI50 up to about 1.1 µM and inactive = higher. Bounds are passed on as bounds.

Consider `COc1ccc(C(c2cc(OC)c(OC)c(OC)c2)N2C(=O)CCC2C(=O)O)cc1` (stereo not given), for which the GI50 was 77.1 µM (inactive) in the experiment with A498; 40.2 µM (inactive) in the experiment with A549; 79.6 µM (inactive) in the experiment on CAKI-1; 41 µM (inactive) with COLO 205; 43.9 µM in the experiment on HCT-15; 32 µM (inactive) in the experiment on HL-60. Moreover, the GI50 in the experiment with Hs-578T is 62.1 µM (inactive); with IGROV-1 it was 84.5 µM (inactive); in the experiment with K562 it was 43.8 µM (inactive); in the experiment on LOX IMVI, 66.8 µM (inactive); in the experiment on MCF7, 62.4 µM (inactive); with MDA-MB-231 it was > 100 µM (inactive). The GI50 in the experiment on MDA-MB-435 is 21.8 µM (inactive); in the experiment with MDA-N it was 21.1 µM (inactive); with Malme-3M, 68.9 µM (inactive); with NCI-H23, 82.8 µM (inactive); in the experiment on NCI-H460, 38.8 µM (inactive); in the experiment on OVCAR-5, 61.5 µM (inactive). Besides, the figures for the GI50 with SF-268 and in the experiment with SK-MEL-5 were > 100 µM (inactive) and 41.9 µM (inactive), respectively.

As for `CCNC(=O)Cc1nc2c(O)ncnc2n1C1OC(CO)C(O)C1O` (stereo not given), the GI50 in the experiment with A498 was > 100 µM (inactive); in the experiment with A549 it was > 100 µM (inactive); with CAKI-1, > 100 µM (inactive); in the experiment on COLO 205, > 100 µM (inactive); in the experiment with HCT-15, above 100 µM; in the experiment on HL-60 it was > 100 µM (inactive). For the same compound, the GI50 in the experiment on Hs-578T, with IGROV-1, with K562, in the experiment with LOX IMVI, in the experiment with MCF7 and with MDA-MB-231 was > 100 µM (inactive) each time. Besides, the GI50 in the experiment with MDA-MB-435, in the experiment with MDA-N, in the experiment on Malme-3M, in the experiment with NCI-H23, in the experiment with NCI-H460 and in the experiment with OVCAR-5 was > 100 µM (inactive) in each case. For the same compound, the GI50 in the experiment on SF-268 and in the experiment with SK-MEL-5 was > 100 µM (inactive) in each case.

As for `C[C@H](Nc1nc(N)c(N=O)c(=O)n1C)C(=O)O`, the GI50 was > 10 µM (inactive) in the experiment on A498; > 10 µM (inactive) with A549; > 10 µM (inactive) with CAKI-1; > 10 µM (inactive) with COLO 205; above 10 µM in the experiment with HCT-15; > 10 µM (inactive) in the experiment with HL-60. Moreover, the GI50 in the experiment with Hs-578T, with IGROV-1, in the experiment on K562, in the experiment with LOX IMVI, with MCF7 and in the experiment with MDA-MB-231 was > 10 µM (inactive) in each case. For the same compound, the GI50 with MDA-MB-435, in the experiment with MDA-N, in the experiment with Malme-3M, with NCI-H23, with NCI-H460 and in the experiment on OVCAR-5 was > 10 µM (inactive) throughout. Moreover, the GI50 in the experiment on SF-268 and in the experiment with SK-MEL-5 was > 10 µM (inactive) each time.

Take `Clc1ccc2c(NCCNc3ccnc4cc(Cl)ccc34)ccnc2c1`: the GI50 is 16.9 µM (inactive) with A498; 18.5 µM (inactive) in the experiment with A549; 20.2 µM (inactive) with CAKI-1; 14.6 µM (inactive) in the experiment with COLO 205; 15.6 µM in the experiment on HCT-15; 14.6 µM (inactive) in the experiment on HL-60. The GI50 with Hs-578T was 31.9 µM (inactive); in the experiment on IGROV-1, 18.2 µM (inactive); with K562, 12.3 µM (inactive); in the experiment on LOX IMVI it was 17.7 µM (inactive); in the experiment on MCF7 it was 19.7 µM (inactive); in the experiment with MDA-MB-231 it was 17 µM (inactive). Besides, the GI50 was 17.8 µM (inactive) in the experiment with MDA-MB-435; 17.1 µM (inactive) in the experiment with MDA-N; > 100 µM (inactive) in the experiment with Malme-3M; 17.1 µM (inactive) in the experiment on NCI-H23; 14 µM (inactive) in the experiment on NCI-H460; 16.5 µM (inactive) in the experiment on OVCAR-5. Moreover, the GI50 in the experiment with SF-268 is 25.9 µM (inactive); in the experiment with SK-MEL-5 it was 22.4 µM (inactive).

With `C/C=C1/C[C@@H](C)[C@@](C)(O)C(=O)OCC2=CC[N+]3([O-])CC[C@@H](OC1=O)[C@@H]23` (stereo not given in full) [SENECIONINE N-OXIDE], the GI50 in the experiment with A498 is > 100 µM (inactive); with A549 it was > 100 µM (inactive); in the experiment with CAKI-1, > 100 µM (inactive); in the experiment with COLO 205 it was > 100 µM (inactive); in the experiment with HCT-15, above 100 µM; in the experiment on HL-60, > 100 µM (inactive). In addition, the GI50 in the experiment on Hs-578T is > 100 µM (inactive); with IGROV-1, > 100 µM (inactive); in the experiment with K562, 0.0482 µM (active); in the experiment on LOX IMVI it was > 100 µM (inactive); with MCF7, > 100 µM (inactive); in the experiment with MDA-MB-231, > 100 µM (inactive). In addition, the GI50 with MDA-MB-435 was > 100 µM (inactive); in the experiment with MDA-N, > 100 µM (inactive); with Malme-3M, 94.6 µM (inactive); with NCI-H23 it was > 100 µM (inactive); in the experiment with NCI-H460, > 100 µM (inactive); in the experiment on OVCAR-5 it was > 100 µM (inactive). Further, the GI50 with SF-268 and with SK-MEL-5 was > 100 µM (inactive) in each case.
